# Patent publication US20140005163A1 (NOVARTIS AG, priority 2010, published 2014)
# Key:
# [1] = biological target: T1, mTOR (Homo sapiens, UniProt P42345); assay: Biochemical assay for m-TOR by TR-FRET; conditions: 8 μM ATP, 400 nM GFP-4EBP1, 0.5 nM mTOR
# T1 construct: purchased Invitrogen Corporation (Carlsbad/CA, USA) PV4753
# Summary of the method: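 Steps: ATP (8 μM final) plus GFP-4EBP1 (400 nM final) combined with mTOR (0.5 nM final), incubated at rt; buffer HEPES pH 7.5 with 10 mM MnCl2, NaCl, EGTA, DTT. Then stopped with EDTA/Tb3+-anti-p4EBP1 pT46 Ab (0.5 nM). Plates read after 15 min.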
# [2] = system: PKB Ser473 phosphorylation in Rat1-myr-HA-p110 alpha cells; assay: Reverse protein array assay, PKB Ser473 phosphorylation in Rat1-myr-p110 alpha cells; type: cell-based; conditions: 0.5 h, pAkt Ser473, 30 minutes compound incubation, read-out: p-PKB IC50
# Summary of the method: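 Measured: PKB Ser473 phosphorylation by reverse protein array in Rat1 cells expressing myr-HA-p110 alpha, beta or delta, after 30 min compound treatment at 37 °C with 0.2% DMSO vehicle.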
# [3] = biological target: T2, PI3K delta (Homo sapiens, UniProt O00329); assay: PI3K delta kinase assay (Kinase-Glo luminescence); type: biochemical
# T2 construct: for the full-length p110-d subunit are generated and fused by overlapping PCR; p85(iSH2) fusion partner (see partner chain) (N); His tag (C); made in house; host or cells: baculovirus; Tn5 (Trichoplusia ni) or TiniPro insect cells
# T2 sequence (O00329 with tags, fused parts or gaps limits assumed): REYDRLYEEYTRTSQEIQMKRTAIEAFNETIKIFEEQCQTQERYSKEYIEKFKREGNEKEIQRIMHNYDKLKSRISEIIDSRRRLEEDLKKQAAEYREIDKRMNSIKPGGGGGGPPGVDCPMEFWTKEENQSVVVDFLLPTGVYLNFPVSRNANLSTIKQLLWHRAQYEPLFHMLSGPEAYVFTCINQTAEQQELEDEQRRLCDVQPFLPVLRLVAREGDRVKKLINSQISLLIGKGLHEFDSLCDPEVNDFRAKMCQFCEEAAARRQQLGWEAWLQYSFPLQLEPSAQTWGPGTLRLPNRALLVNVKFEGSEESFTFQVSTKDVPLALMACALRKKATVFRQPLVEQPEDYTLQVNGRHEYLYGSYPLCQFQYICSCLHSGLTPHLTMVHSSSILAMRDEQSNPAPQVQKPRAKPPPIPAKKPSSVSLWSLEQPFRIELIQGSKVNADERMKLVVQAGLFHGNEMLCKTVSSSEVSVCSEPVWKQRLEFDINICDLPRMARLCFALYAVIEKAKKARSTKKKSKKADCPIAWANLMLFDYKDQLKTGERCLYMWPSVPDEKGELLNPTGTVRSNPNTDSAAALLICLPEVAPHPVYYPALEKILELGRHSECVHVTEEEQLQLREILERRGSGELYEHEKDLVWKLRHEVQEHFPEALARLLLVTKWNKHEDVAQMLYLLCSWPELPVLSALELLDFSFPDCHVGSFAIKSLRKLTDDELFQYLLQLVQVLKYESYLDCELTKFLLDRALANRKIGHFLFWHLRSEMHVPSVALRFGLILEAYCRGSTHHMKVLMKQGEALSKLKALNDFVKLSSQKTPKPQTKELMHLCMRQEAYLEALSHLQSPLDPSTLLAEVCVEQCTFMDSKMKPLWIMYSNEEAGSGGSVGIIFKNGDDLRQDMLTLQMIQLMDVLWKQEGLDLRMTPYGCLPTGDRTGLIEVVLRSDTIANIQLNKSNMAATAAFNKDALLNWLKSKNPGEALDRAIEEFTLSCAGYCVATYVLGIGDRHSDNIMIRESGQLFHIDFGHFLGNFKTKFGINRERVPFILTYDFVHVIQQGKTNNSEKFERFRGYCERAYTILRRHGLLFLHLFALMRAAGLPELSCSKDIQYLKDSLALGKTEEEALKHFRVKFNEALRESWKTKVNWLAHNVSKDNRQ
# Summary of the method: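 Recombinant p85(iSH2)-Gly linker-p110δ full-length construct (BV1060, C-terminal His tag) was used at 10 nM with 10 μg/mL phosphatidylinositol and 1 μM ATP in 10 mM Tris-HCl pH 7.5, 3 mM MgCl2, 50 mM NaCl, 0.05% CHAPS, 1 mM DTT. After 60 min at room temperature, remaining ATP was measured by Kinase-Glo luminescence.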
# T1 sequence (P42345 1360-2549 limits assumed): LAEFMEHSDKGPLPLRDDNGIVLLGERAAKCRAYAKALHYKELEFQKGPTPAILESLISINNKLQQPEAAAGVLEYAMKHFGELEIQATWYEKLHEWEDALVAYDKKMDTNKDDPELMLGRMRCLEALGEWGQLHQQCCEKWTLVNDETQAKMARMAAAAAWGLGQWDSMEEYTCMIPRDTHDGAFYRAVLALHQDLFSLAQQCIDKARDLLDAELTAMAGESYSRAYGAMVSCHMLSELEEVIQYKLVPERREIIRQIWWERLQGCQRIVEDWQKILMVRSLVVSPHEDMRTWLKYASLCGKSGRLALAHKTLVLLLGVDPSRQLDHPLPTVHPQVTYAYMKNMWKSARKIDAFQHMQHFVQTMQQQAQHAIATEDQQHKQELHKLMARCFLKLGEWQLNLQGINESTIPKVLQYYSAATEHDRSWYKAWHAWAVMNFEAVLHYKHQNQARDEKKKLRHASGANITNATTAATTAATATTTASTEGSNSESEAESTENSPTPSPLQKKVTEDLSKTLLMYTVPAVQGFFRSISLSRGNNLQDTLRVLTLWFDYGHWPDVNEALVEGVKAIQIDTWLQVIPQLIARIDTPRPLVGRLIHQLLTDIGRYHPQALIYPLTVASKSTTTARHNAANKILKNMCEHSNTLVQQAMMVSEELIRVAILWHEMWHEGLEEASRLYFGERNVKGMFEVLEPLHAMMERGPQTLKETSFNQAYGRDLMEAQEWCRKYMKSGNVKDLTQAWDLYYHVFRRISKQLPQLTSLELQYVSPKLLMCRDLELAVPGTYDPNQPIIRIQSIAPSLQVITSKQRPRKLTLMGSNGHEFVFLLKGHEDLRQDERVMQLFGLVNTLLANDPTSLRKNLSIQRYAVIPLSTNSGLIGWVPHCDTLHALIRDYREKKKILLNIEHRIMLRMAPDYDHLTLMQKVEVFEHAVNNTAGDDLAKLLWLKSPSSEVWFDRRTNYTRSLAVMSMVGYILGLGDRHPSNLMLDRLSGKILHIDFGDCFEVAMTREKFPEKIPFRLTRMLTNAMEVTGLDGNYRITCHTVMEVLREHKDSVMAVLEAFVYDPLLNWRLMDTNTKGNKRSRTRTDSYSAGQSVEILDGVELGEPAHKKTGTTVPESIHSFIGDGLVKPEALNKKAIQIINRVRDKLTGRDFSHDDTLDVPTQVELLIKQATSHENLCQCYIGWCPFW
SMILES,IC50 [1],IC50 [2],IC50 [3]
"CN(C)c1ccc(-c2ccc3ncc4c(c3c2)n(-c2cn(C)nc2Cl)c(=O)n4C)cn1 [Example 4.9, 1-(3-Chloro-1-methyl-1H-pyrazol-4-yl)-8-(6-dimethylamino-pyridin-3-yl)-3-methyl-1,3-dihydro-imidazo[4,5-c]quinolin-2-one]",0.011 µM,0.005 µM,0.012 µM
"CN(C)c1ncc(-c2ccc3ncc4c(c3c2)n(-c2cn(C)nc2Cl)c(=O)n4C)cn1 [Example 6.3, 1-(3-Chloro-1-methyl-1H-pyrazol-4-yl)-8-(2-dimethylamino-pyrimidin-5-yl)-3-methyl-1,3-dihydro-imidazo[4,5-c]quinolin-2-one]",0.005 µM,0.009 µM,0.007 µM
"Cc1nn(C)cc1-n1c(=O)n(C)c2cnc3ccc(-c4cnc(N)c(C(F)(F)F)c4)cc3c21 [Example 25.1, 8-(6-Amino-5-trifluoromethyl-pyridin-3-yl)-1-(1,3-dimethyl-1H-pyrazol-4-yl)-3-methyl-1,3-dihydro-imidazo[4,5-c]quinolin-2-one]",0.009 µM,0.005 µM,0.013 µM
"Cc1cc(-n2c(=O)n(C)c3cnc4ccc(-c5cnc(N)c(C(F)(F)F)c5)cc4c32)n(C)n1 [Example 25.6, 8-(6-Amino-5-trifluoromethyl-pyridin-3-yl)-1-(2,5-dimethyl-2H-pyrazol-3-yl)-3-methyl-1,3-dihydro-imidazo[4,5-c]quinolin-2-one]",0.082 µM,0.008 µM,0.032 µM
"CNS(=O)(=O)c1cccc(-c2ccc3ncc4c(c3c2)n(-c2cn(C)nc2C)c(=O)n4C)c1 [Example 39, 3-[1-(1,3-Dimethyl-1H-pyrazol-4-yl)-3-methyl-2-oxo-2,3-dihydro-1H-imidazo[4,5-c]quinolin-8-yl]-N-methyl-benzenesulfonamide]",0.069 µM,0.035 µM,0.003 µM
"Cc1nn(C)cc1-n1c(=O)n(C)c2cnc3ccc(-c4cccc(NS(C)(=O)=O)c4)cc3c21 [Example 47, N-{3-[1-(1,3-dimethyl-1H-pyrazol-4-yl)-3-methyl-2-oxo-2,3-dihydro-1H-imidazo[4,5-c]quinolin-8-yl]-phenyl}-methanesulfonamide]",0.281 µM,0.073 µM,0.178 µM
"CC(C)Oc1cncc(-c2ccc3ncc4c(c3c2)n(-c2cn(C)nc2Cl)c(=O)n4C)c1 [Example 58.2, 1-(3-Chloro-1-methyl-1H-pyrazol-4-yl)-8-(5-isopropoxy-pyridin-3-yl)-3-methyl-1,3-dihydro-imidazo[4,5-c]quinolin-2-one]",0.003 µM,0.009 µM,0.004 µM
"Cc1nn(C)cc1-n1c(=O)n(C)c2cnc3ccc(-c4cncc(OC5CCC5)c4)cc3c21 [Example 60.1, 8-(5-Cyclobutoxy-pyridin-3-yl)-1-(1,3-dimethyl-1H-pyrazol-4-yl)-3-methyl-1,3-dihydro-imidazo[4,5-c]quinolin-2-one]",0.005 µM,< 0.005 µM,< 0.003 µM
"Cc1nn(C)cc1-n1c(=O)n(C)c2cnc3ccc(-c4ccc(-c5ncc[nH]5)cc4)cc3c21 [Example 77, 1-(1,3-Dimethyl-1H-pyrazol-4-yl)-8-[4-(1H-imidazol-2-yl)-phenyl]-3-methyl-1,3-dihydro-imidazo[4,5-c]quinolin-2-one]",< 0.003 µM,0.007 µM,0.008 µM
"Cc1nn(C)cc1-n1c(=O)n(C)c2cnc3ccc(-c4cccc(OC(C)C)c4)cc3c21 [Example 82, 1-(1,3-Dimethyl-1H-pyrazol-4-yl)-8-(3-isopropoxy-phenyl)-3-methyl-1,3-dihydro-imidazo[4,5-c]quinolin-2-one]",0.027 µM,0.044 µM,0.077 µM
"CCN(CC)c1cncc(-c2ccc3ncc4c(c3c2)n(-c2cn(C)nc2C)c(=O)n4C)c1 [Example 95, 8-(5-Diethylamino-pyridin-3-yl)-1-(1,3-dimethyl-1H-pyrazol-4-yl)-3-methyl-1,3-dihydro-imidazo[4,5-c]quinolin-2-one]",0.02 µM,< 0.005 µM,0.024 µM
"Cc1nn(C)cc1-n1c(=O)n(C)c2cnc3ccc(-c4ccc(N5CCCC5)nc4)cc3c21 [Example 97, 1-(1,3-Dimethyl-1H-pyrazol-4-yl)-3-methyl-8-(6-pyrrolidin-1-yl-pyridin-3-yl)-1,3-dihydro-imidazo[4,5-c]quinolin-2-one]",0.007 µM,0.007 µM,0.236 µM
"CNc1ncc(-c2ccc3ncc4c(c3c2)n(-c2cn(C)nc2Cl)c(=O)n4C)cc1C [Example 119, 1-(3-Chloro-1-methyl-1H-pyrazol-4-yl)-3-methyl-8-(5-methyl-6-methylamino-pyridin-3-yl)-1,3-dihydro-imidazo[4,5-c]quinolin-2-one]",< 0.003 µM,0.006 µM,0.009 µM
"Cc1nn(C)cc1-n1c(=S)n(C)c2cnc3ccc(-c4cccnc4)cc3c21 [Example 128.1, 1-(1,3-Dimethyl-1H-pyrazol-4-yl)-3-methyl-8-pyridin-3-yl-1,3-dihydro-imidazo[4,5-c]quinoline-2-thione]",0.069 µM,0.005 µM,0.022 µM
"COc1ccc(-c2ccc3ncc4c(c3c2)n(-c2cn(C)nc2C)c(=S)n4C)cc1OC [Example 128.2, 8-(3,4-Dimethoxy-phenyl)-1-(1,3-dimethyl-1H-pyrazol-4-yl)-3-methyl-1,3-dihydro-imidazo[4,5-c]quinoline-2-thione]",0.012 µM,< 0.005 µM,0.011 µM

# More lines, now with the values ahead:
IC50 [1],IC50 [2],IC50 [3],SMILES
< 0.003 µM,< 0.005 µM,0.004 µM,"CNc1ncc(-c2ccc3ncc4c(c3c2)n(-c2cn(C(C)C)nc2C)c(=O)n4C)cc1C(F)(F)F [Example 144.2, 1-(1-Isopropyl-3-methyl-1H-pyrazol-4-yl)-3-methyl-8-(6-methylamino-5-trifluoromethyl-pyridin-3-yl)-1,3-dihydro-imidazo[4,5-c]quinolin-2-one]"
0.016 µM,0.009 µM,0.009 µM,"CCNc1ncc(-c2ccc3ncc4c(c3c2)n(-c2cn(C)nc2C)c(=O)n4C)cc1C(F)(F)F [Example 145.2, 1-(1,3-Dimethyl-1H-pyrazol-4-yl)-8-(6-ethylamino-5-trifluoromethyl-pyridin-3-yl)-3-methyl-1,3-dihydro-imidazo[4,5-c]quinolin-2-one]"
0.012 µM,< 0.005 µM,0.013 µM,"CCn1cc(-n2c(=O)n(C)c3cnc4ccc(-c5cnc(N)c(Cl)c5)cc4c32)c(C)n1 [Example 148.3, 8-(6-Amino-5-chloro-pyridin-3-yl)-1-(1-ethyl-3-methyl-1H-pyrazol-4-yl)-3-methyl-1,3-dihydro-imidazo[4,5-c]quinolin-2-one]"
0.21 µM,0.049 µM,0.038 µM,"Cc1cc(-n2c(=O)n(C)c3cnc4ccc(-c5cnc(F)c(N)c5)cc4c32)n(C)n1 [Example 149.3, 8-(5-Amino-6-fluoro-pyridin-3-yl)-1-(2,5-dimethyl-2H-pyrazol-3-yl)-3-methyl-1,3-dihydro-imidazo[4,5-c]quinolin-2-one]"
0.013 µM,0.007 µM,0.008 µM,"Cc1nn(C(C)C)cc1-n1c(=O)n(C)c2cnc3ccc(-c4cnc(Cl)c(N)c4)cc3c21 [Example 152.1, 8-(5-Amino-6-chloro-pyridin-3-yl)-1-(1-isopropyl-3-methyl-1H-pyrazol-4-yl)-3-methyl-1,3-dihydro-imidazo[4,5-c]quinolin-2-one]"
0.189 µM,0.123 µM,0.007 µM,"Cc1nn(C)c(C)c1-n1c(=O)n(C)c2cnc3ccc(-c4cnc(Cl)c(N)c4)cc3c21 [Example 152.3, 8-(5-Amino-6-chloro-pyridin-3-yl)-3-methyl-1-(1,3,5-trimethyl-1H-pyrazol-4-yl)-1,3-dihydro-imidazo[4,5-c]quinolin-2-one]"
0.055 µM,0.04 µM,0.006 µM,"CCOCc1cc(-c2ccc3ncc4c(c3c2)n(-c2cn(C(C)C)nc2C)c(=O)n4C)cnc1N [Example 166.3, 8-(6-Amino-5-ethoxymethyl-pyridin-3-yl)-1-(1-isopropyl-3-methyl-1H-pyrazol-4-yl)-3-methyl-1,3-dihydro-imidazo[4,5-c]quinolin-2-one]"
0.016 µM,0.005 µM,< 0.003 µM,"CCOCc1cc(-c2ccc3ncc4c(c3c2)n(-c2cn(C)nc2Cl)c(=O)n4C)cnc1N [Example 166.4, 8-(6-Amino-5-ethoxymethyl-pyridin-3-yl)-1-(3-chloro-1-methyl-1H-pyrazol-4-yl)-3-methyl-1,3-dihydro-imidazo[4,5-c]quinolin-2-one]"
1.82 µM,0.268 µM,0.023 µM,"Cc1nn(C(C)C)cc1-n1c(=O)n(C)c2cnc3ccc(-c4cnc5c(c4)COC(=O)N5C)cc3c21 [Example 170, 1-(1-Isopropyl-3-methyl-1H-pyrazol-4-yl)-3-methyl-8-(1-methyl-2-oxo-1,4-dihydro-2H-pyrido[2,3-d][1,3]oxazin-6-yl)-1,3-dihydro-imidazo[4,5-c]quinolin-2-one]"
